Holding throughout (format): in vitro ADME
What all share (settings): 5 μM, equilibrium dialysis 4 hours at 37° C.

The subject of data set [1] is plasma protein. Description: Plasma protein binding rate test by equilibrium dialysis method, monkey plasma. The protocol:
(§1) Plasma protein binding rates of the compounds were determined by equilibrium dialysis method (W. Lindner et al, J. Chromatography, 1996, 677, 1-28). Each test compound was dissolved in distilled water at concentration of 200 μM. The solution was added to the plasma of mouse, dog, rabbit, monkey and human respectively, at the amount to obtain the final concentration of 5 μM. This solution (300 μL) and PBS solution (500 μL) were added to each dialysis cell of equilibrium dialysis unit RED device (Pierce Biotechnology), and the cells were shaken at 100 rpm at 37° C. After 4 hours, samples of plasma and the buffer were collected, and the fluorescence intensity of each was measured by EnVision ([…]). After the concentrations were calculated from a calibration curve, the concentrations (%) of free test compound in plasma were determined.
A general note: In equilibrium dialysis only unbound substance equilibrates across the membrane.

In data set [2] the test system is plasma protein. Description: Plasma protein binding rate test by equilibrium dialysis method, rabbit plasma. The procedure:
as §1

Data set [3] relates to plasma protein. The data set is described as follows: Plasma protein binding rate test by equilibrium dialysis method, human plasma. The procedure: as §1
Data set [4] relates to plasma protein. Description: Plasma protein binding rate test by equilibrium dialysis method, dog plasma. The protocol: as §1
Data set [5] relates to plasma protein. The data set is described as follows: Plasma protein binding rate test by equilibrium dialysis method, mouse plasma. The procedure: as §1

Regarding `CC1(C)C(/C=C/C=C(/C=C/C=C2\N(CCS(=O)(=O)[O-])c3ccc(P(=O)([O-])[O-])cc3C2(C)C)c2ccccc2)=[N+](CCS(=O)(=O)[O-])c2ccc(P(=O)([O-])[O-])cc21.[Na+].[Na+].[Na+].[Na+].[Na+]` [Compound 15], the “Plasma protein binding rate (%) monkey” value in the data set with plasma protein [1] turned out to be 96%. Also, the “Plasma protein binding rate (%) rabbit” value with plasma protein [2] worked out at 94%. Moreover, the “Plasma protein binding rate (%) human” value with plasma protein [3] was 93%.

Take `CC1(C)C(/C=C/C=C/C=C/C=C2\N(CCS(=O)(=O)[O-])c3ccc(S(=O)(=O)[O-])cc3C2(C)C)=[N+](CCS(=O)(=O)[O-])c2ccc(S(=O)(=O)[O-])cc21.[Na+].[Na+].[Na+]` [Compound A, reference compound]: the “Plasma protein binding rate (%) monkey” value in the data set with plasma protein [1] was 87%. Moreover, in the data set with plasma protein [2], the “Plasma protein binding rate (%) rabbit” value came to 79%. The “Plasma protein binding rate (%) dog” value in the data set with plasma protein [4] is 29%. Moreover, the “Plasma protein binding rate (%) human” value in the data set with plasma protein [3] came out at 82%. The “Plasma protein binding rate (%) mouse” value in the data set on plasma protein [5] was 27%.

Turning to `CC(/C=C/C=C1\N(CCS(=O)(=O)[O-])c2ccc(S(=O)(=O)[O-])cc2C1(C)C)=C\C=C\C1=[N+](CCS(=O)(=O)[O-])c2ccc(S(=O)(=O)[O-])cc2C1(C)C.[Na+].[Na+].[Na+]` [Compound B, reference compound], the “Plasma protein binding rate (%) monkey” value in the data set with plasma protein [1] is recorded as 93%. The “Plasma protein binding rate (%) rabbit” value in the data set on plasma protein [2] is given as 88%. In the data set on plasma protein [3], the “Plasma protein binding rate (%) human” value is reported as 92%.

For the molecule `CC1(C)C(/C=C/C=C/C=C/C=C2/N(CCS(=O)(=O)[O-])c3ccc(P(=O)([O-])[O-])cc3C2(C)C)=[N+](CCS(=O)(=O)[O-])c2ccc(P(=O)([O-])[O-])cc21.[Na+].[Na+].[Na+].[Na+].[Na+]` [Compound 14], in the data set on plasma protein [1], the “Plasma protein binding rate (%) monkey” value was found to be 95%. Besides, the “Plasma protein binding rate (%) rabbit” value in the data set with plasma protein [2] is given as 87%. The “Plasma protein binding rate (%) dog” value with plasma protein [4] worked out at 71%. Also, the “Plasma protein binding rate (%) human” value in the data set with plasma protein [3] is reported as 94%.

Turning to `CC1(C)C(/C=C/C=C(/C=C/C=C2\N(CCP(=O)([O-])[O-])c3ccc(S(=O)(=O)[O-])cc3C2(C)C)c2ccccc2)=[N+](CCP(=O)([O-])[O-])c2ccc(S(=O)(=O)[O-])cc21.[Na+].[Na+].[Na+].[Na+].[Na+]` [Compound 11], in the data set with plasma protein [1], the “Plasma protein binding rate (%) monkey” value is listed as 97%. The “Plasma protein binding rate (%) rabbit” value with plasma protein [2] is on record as 98%. Moreover, in the data set on plasma protein [4], the “Plasma protein binding rate (%) dog” value worked out at 83%. Besides, the “Plasma protein binding rate (%) human” value in the data set on plasma protein [3] was 98%. In the data set on plasma protein [5], the “Plasma protein binding rate (%) mouse” value came to 91%.

With `CC1(C)C(/C=C/C=C(/C=C/C=C2\N(CCC(=O)[O-])c3ccc(P(=O)([O-])[O-])cc3C2(C)C)c2ccccc2)=[N+](CCC(=O)[O-])c2ccc(P(=O)([O-])[O-])cc21.[Na+].[Na+].[Na+].[Na+].[Na+]` [Compound 16], the “Plasma protein binding rate (%) monkey” value in the data set with plasma protein [1] was 92%. Besides, the “Plasma protein binding rate (%) rabbit” value with plasma protein [2] worked out at 95%. Also, the “Plasma protein binding rate (%) dog” value in the data set on plasma protein [4] came to 77%. For the same molecule, the “Plasma protein binding rate (%) human” value with plasma protein [3] turned out to be 95%. Also, the “Plasma protein binding rate (%) mouse” value in the data set with plasma protein [5] was found to be 77%.

As for `CC1(C)C(=CC=CC=CC=CC2=[N+](CCP(=O)([O-])[O-])c3ccc(S(=O)(=O)[O-])cc3C2(C)C)N(CCP(=O)([O-])[O-])c2ccc(S(=O)(=O)[O-])cc21.[Na+].[Na+].[Na+].[Na+].[Na+]` [Compound 9], the “Plasma protein binding rate (%) monkey” value in the data set with plasma protein [1] is listed as 67%. Moreover, the “Plasma protein binding rate (%) rabbit” value with plasma protein [2] is recorded as 61%. Besides, in the data set on plasma protein [4], the “Plasma protein binding rate (%) dog” value came to 50%. Moreover, the “Plasma protein binding rate (%) human” value with plasma protein [3] was 56%. Moreover, the “Plasma protein binding rate (%) mouse” value in the data set on plasma protein [5] turned out to be 46%.

Consider `CC(/C=C/C=C1\N(CCS(=O)(=O)[O-])c2ccc(P(=O)([O-])[O-])cc2C1(C)C)=C\C=C\C1=[N+](CCS(=O)(=O)[O-])c2ccc(P(=O)([O-])[O-])cc2C1(C)C.[Na+].[Na+].[Na+].[Na+].[Na+]` [Compound 18], for which the “Plasma protein binding rate (%) monkey” value in the data set with plasma protein [1] is on record as 95%. Further, the “Plasma protein binding rate (%) rabbit” value in the data set on plasma protein [2] stood at 82%. Further, the “Plasma protein binding rate (%) human” value with plasma protein [3] came to 96%. For the same molecule, the “Plasma protein binding rate (%) mouse” value in the data set on plasma protein [5] was 59%.

As to `CC1(C)C(/C=C/C=C/C=C/C=C2\N(CC(=O)O)c3ccc(S(=O)(=O)[O-])cc3C2(C)C)=[N+](CC(=O)O)c2ccc(S(=O)(=O)[O-])cc21.[Na+]` [Compound 4], in the data set with plasma protein [1], the “Plasma protein binding rate (%) monkey” value is 71%. Further, the “Plasma protein binding rate (%) rabbit” value with plasma protein [2] is listed as 67%. Also, in the data set with plasma protein [4], the “Plasma protein binding rate (%) dog” value is reported as 50%. For the same molecule, the “Plasma protein binding rate (%) human” value with plasma protein [3] is 74%. Besides, in the data set on plasma protein [5], the “Plasma protein binding rate (%) mouse” value came out at 57%.

Regarding `CC1(C)C(/C=C/C=C/C=C/C=C2/N(CCCP(=O)(O)O)c3ccc(S(=O)(=O)O)cc3C2(C)C)=[N+](CCCP(=O)(O)O)c2ccc(S(=O)(=O)O)cc21.[Na+].[Na+].[Na+].[Na+].[Na+].[Na+]` [Compound 10], the “Plasma protein binding rate (%) dog” value in the data set with plasma protein [4] is reported as 52%. Moreover, in the data set with plasma protein [5], the “Plasma protein binding rate (%) mouse” value was found to be 53%.

Turning to `CC1(C)C(/C=C/C=C/C=C/C=C2/N(CCC(=O)[O-])c3ccc(P(=O)([O-])[O-])cc3C2(C)C)=[N+](CCC(=O)[O-])c2ccc(P(=O)([O-])[O-])cc21.[Na+].[Na+].[Na+].[Na+].[Na+]` [Compound 13], the “Plasma protein binding rate (%) monkey” value with plasma protein [1] came out at 90%. Also, in the data set with plasma protein [2], the “Plasma protein binding rate (%) rabbit” value came to 87%. The “Plasma protein binding rate (%) human” value in the data set on plasma protein [3] was determined as 89%.

With `CC1(C)C(/C=C/C=C(/C=C/C=C2\N(CCCP(=O)([O-])[O-])c3ccc(S(=O)(=O)[O-])cc3C2(C)C)c2ccccc2)=[N+](CCCP(=O)([O-])[O-])c2ccc(S(=O)(=O)[O-])cc21.[Na+].[Na+].[Na+].[Na+].[Na+]` [Compound 12], the “Plasma protein binding rate (%) monkey” value with plasma protein [1] was found to be 93%. In addition, the “Plasma protein binding rate (%) rabbit” value with plasma protein [2] is 95%. Also, in the data set on plasma protein [4], the “Plasma protein binding rate (%) dog” value amounted to 82%. Moreover, in the data set on plasma protein [3], the “Plasma protein binding rate (%) human” value is given as 95%. Also, in the data set on plasma protein [5], the “Plasma protein binding rate (%) mouse” value was determined as 91%.

Turning to `CC1(C)C(/C=C/C=C/C=C/C=C2/N(CCCCC(=O)O)c3ccc(S(=O)(=O)O)cc3C2(C)C)=[N+](CCCCC(=O)O)c2ccc(S(=O)(=O)O)cc21.[Na+].[Na+]` [Compound 6], the “Plasma protein binding rate (%) monkey” value in the data set on plasma protein [1] is 79%. Further, the “Plasma protein binding rate (%) rabbit” value in the data set with plasma protein [2] was 88%. In addition, the “Plasma protein binding rate (%) dog” value in the data set with plasma protein [4] is on record as 59%. The “Plasma protein binding rate (%) human” value in the data set on plasma protein [3] stood at 88%.

`CC(/C=C/C=C1\N(CCC(=O)[O-])c2ccc(P(=O)([O-])[O-])cc2C1(C)C)=C\C=C\C1=[N+](CCC(=O)[O-])c2ccc(P(=O)([O-])[O-])cc2C1(C)C.[Na+].[Na+].[Na+].[Na+].[Na+]` [Compound 17]: in the data set with plasma protein [1], the “Plasma protein binding rate (%) monkey” value is on record as 91%. In addition, the “Plasma protein binding rate (%) rabbit” value in the data set on plasma protein [2] was found to be 79%. Moreover, the “Plasma protein binding rate (%) dog” value in the data set with plasma protein [4] is on record as 59%. Besides, the “Plasma protein binding rate (%) human” value with plasma protein [3] worked out at 93%. Further, the “Plasma protein binding rate (%) mouse” value with plasma protein [5] is given as 63%.

The values are drawn from US20110054188A1, “NEAR INFRARED FLUORESCENT IMAGING AGENT” (FUJIFILM Corporation, priority 2009, published 2011).
